Source: patent US20170128426A1, “NOVEL DOSAGE AND FORMULATION” (Almirall, S.A., priority 2012, published 2017)

Assay: Solubility of aclidinium bromide in solvents
Format: physicochemical
Excerpt: Aclidinium bromide is a white powder with a molecular formula of C26H30NO4S2Br and a molecular mass of 564.56. […] This compound is known to be a long-acting anticholinergic useful in the treatment of respiratory diseases.

Q: Which results are given for `O=C(O[C@H]1C[N+]2(CCCOc3ccccc3)CCC1CC2)C(O)(c1cccs1)c1cccs1.[Br-]` [Aclidinium bromide, 3(R)-(2-hydroxy-2,2-dithien-2-ylacetoxy)-1-(3-phenoxypropyl)-1-azoniabicyclo[2.2.2]octane bromide]?
A: solubility in ethanol (ethanol): very slightly soluble; solubility in methanol (methanol): sparingly soluble; solubility in water (water): very slightly soluble
